Measurements taken from article PMC11714206, “Massively Parallel Screening of Toll/Interleukin‐1 Receptor (TIR)‐Derived Peptides Reveals Multiple Toll‐Like Receptors (TLRs)‐Targeting Immunomodulatory Peptides” (Advanced Science, 2024).
Values belong to the sequence of their own block, whether it stands above or below them.

Biological target: T1, MyD88^TIR (Homo sapiens, UniProt Q99836)
T1 construct: MyD88 (residues 148–296); 6xHis; made in house; host or cells: E. coli BL21 (DE3)
Test: T‐Surf phage library (P8 and P3) selection against MyD88^TIR, four rounds, NGS read counts
Format: binding
Conditions: for P3_MyD88 Rank (after) / P3_MyD88 Rank (before): P3 library; for Population: 4th round of selection against MyD88 TIR, share of NGS reads; for P8_MyD88 Rank (after) / P8_MyD88 Rank (before): P8 library
Summary of the method: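 Four panning rounds on TIR domain adsorbed at 5 µg mL^−1; binding 1 h at 20–22 °C, elution with 100 mM HCl. Output: NGS read counts of round‐4 pools versus naïve library.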

[1] = P8_MyD88: rank by count after grouping
[2] = P8_MyD88: rank by count before grouping
[3] = P3_MyD88: rank by count after grouping
[4] = P3_MyD88: rank by count before grouping
[5] = 4R selection against MyD88, rank after grouping
[6] = 4R selection against MyD88, rank before grouping
[7] = P3_MyD88 pool: P3 T-Surf phage library
[8] = selection against MyD88, rank after grouping
[9] = selection against MyD88, rank before grouping
[10] = selection against MyD88, rank by count after grouping
[11] = selection against MyD88, rank by count before grouping
[12] = selection against MyD88 TIR, rank by count after grouping
[13] = selection against MyD88 TIR, rank by count before grouping
[14] = P8_MyD88 pool: P8 T-Surf phage library
[15] = P8_MyD88: rank by NGS read count after grouping
[16] = P8_MyD88: rank by NGS read count before grouping

T1 sequence (Q99836 148-296): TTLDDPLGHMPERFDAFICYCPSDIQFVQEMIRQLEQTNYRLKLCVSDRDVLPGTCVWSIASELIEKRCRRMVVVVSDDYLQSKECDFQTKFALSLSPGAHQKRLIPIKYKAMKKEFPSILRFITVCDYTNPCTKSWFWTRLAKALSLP

Sequence: LVAHEITKKLKSFATI
P3_MyD88 Rank (after) [5]: 641
P3_MyD88 Rank (before) [6]: 2309

Sequence: YAFTGHLCRCLVLRGA
P3_MyD88 Rank (after) [8]: 506
P3_MyD88 Rank (before) [9]: 1489

Sequence: LGYHLIVWEYFVGIED
P8_MyD88 Rank (after) [10]: 744
P8_MyD88 Rank (before) [11]: 3227

Sequence: FLSYRALEKRFGRLA
P3_MyD88 Rank (after) [5]: 625
P3_MyD88 Rank (before) [6]: 1351

Sequence: NELVHVWSSKANSLW
P3_MyD88 Rank (after) [12]: 262
P3_MyD88 Rank (before) [13]: 3420

Sequence: YYDSRWALDELLKILYANETM
Rank (after) [1]: 171
Rank (before) [2]: 192
Population [14]: 0.00617%

Sequence: FAANPLSFHVRVKLGG
P8_MyD88 Rank (after) [8]: 501
P8_MyD88 Rank (before) [9]: 1303

Sequence: DPQDLAWSYERLVSLF
P8_MyD88 Rank (after) [12]: 255
P8_MyD88 Rank (before) [13]: 2732

Sequence: SELRVVDDGSVSPRET
P3_MyD88 Rank (after) [10]: 741
P3_MyD88 Rank (before) [11]: 3045

Sequence: YLLLNVFQIIFARGPE
P8_MyD88 Rank (after) [8]: 546
P8_MyD88 Rank (before) [9]: 2018

Sequence: LAIIGLIGSILWALK
P8_MyD88 Rank (after) [12]: 210
P8_MyD88 Rank (before) [13]: 492

Sequence: PQELEWCYERLVSLIL
P8_MyD88 Rank (after) [12]: 240
P8_MyD88 Rank (before) [13]: 3497

Sequence: SSFREGLLRLLELNKK
Rank (after) [3]: 139
Rank (before) [4]: 3237

Sequence: ELDFSHFWLFDGHATGEA
Population [14]: 0.0177%

Sequence: SELCVVAEGSVSPLDM
P3_MyD88 Rank (after) [5]: 587
P3_MyD88 Rank (before) [6]: 3010

Sequence: DPQVRVWFYERLVSLF
P8_MyD88 Rank (after) [10]: 755
P8_MyD88 Rank (before) [11]: 2659

Sequence: KEVEVWRDALTKVVGL
P3_MyD88 Rank (after) [10]: 713
P3_MyD88 Rank (before) [11]: 3606

Sequence: DPQDLDWFYERLFSQT
P8_MyD88 Rank (after) [12]: 269
P8_MyD88 Rank (before) [13]: 2858

Sequence: NELIDVGHSYSMHRGG
P3_MyD88 Rank (after) [10]: 743
P3_MyD88 Rank (before) [11]: 3387

Sequence: YYDSRWALNELLEIL
Rank (after) [15]: 903
Rank (before) [16]: 1682

Sequence: WDFASNMEQFWDRLLYA
P8_MyD88 Rank (after) [10]: 711
P8_MyD88 Rank (before) [11]: 1610

Sequence: PQDLGWFYERLISQILK
Rank (after) [1]: 386
Rank (before) [2]: 1201

Sequence: WRDVLKYIANLSGWDS
P8_MyD88 Rank (after) [12]: 243
P8_MyD88 Rank (before) [13]: 435

Sequence: DPQDLVWFYERLVSLF
Population [14]: 0.00886%

Sequence: PQDLEWFYERMVGLIL
Rank (after) [15]: 879
Rank (before) [16]: 3429

Sequence: SSFREGLWRLLELSET
Rank (after) [3]: 145
Rank (before) [4]: 1199

Sequence: DPLGQVRLSFRLFRQI
P8_MyD88 Rank (after) [10]: 748
P8_MyD88 Rank (before) [11]: 2610

Sequence: IWVWDFYNSQLEGPMG
P8_MyD88 Rank (after) [10]: 753
P8_MyD88 Rank (before) [11]: 3609

Sequence: DPQDLDWFYKRLVSLL
Rank (after) [1]: 121
Rank (before) [2]: 724

Sequence: LKVEGWRRALEKAGNL
Rank (after) [3]: 467
Rank (before) [4]: 2470

Sequence: DPQDLAWFSERLVSQF
P8_MyD88 Rank (after) [8]: 551
P8_MyD88 Rank (before) [9]: 2728

Sequence: FLSYRALEKRFGPLVQ
P3_MyD88 Rank (after) [8]: 536
P3_MyD88 Rank (before) [9]: 1378

Sequence: PKVGSWRQALEKAGKL
P3_MyD88 Rank (after) [8]: 560
P3_MyD88 Rank (before) [9]: 2763

Sequence: LKVEIWLQTLEKAEKP
Rank (after) [3]: 440
Rank (before) [4]: 2472

Sequence: DRVWDYLLPNLEGQAG
P8_MyD88 Rank (after) [8]: 545
P8_MyD88 Rank (before) [9]: 3073

Sequence: KEREFGAQRAGKWRAA
P3_MyD88 Rank (after) [5]: 670
P3_MyD88 Rank (before) [6]: 3663

Sequence: RELGVVDDGSVSALEM
Rank (after) [3]: 410
Rank (before) [4]: 2692

Sequence: WALDELRKNLYAIETM
P8_MyD88 Rank (after) [10]: 701
P8_MyD88 Rank (before) [11]: 1502

Sequence: YLRADDIWVWEKLLYA
P8_MyD88 Rank (after) [5]: 646
P8_MyD88 Rank (before) [6]: 2040

Sequence: DPQELEWFYERLLSQM
P8_MyD88 Rank (after) [5]: 620
P8_MyD88 Rank (before) [6]: 2993

Further lines, results first:

Rank (after) [1]: 430
Rank (before) [2]: 897
Sequence: WRTALTKVGNMLGWIS

Rank (after) [3]: 119
Rank (before) [4]: 1665
Sequence: YTALTNSGFHTFLDNY

Population [7]: 0.0032%
Sequence: SSFREGLCRLLELSKK

P8_MyD88 Rank (after) [8]: 572
P8_MyD88 Rank (before) [9]: 2260
Sequence: VSHLIDAFERYGIMFFIDT

P3_MyD88 Rank (after) [10]: 683
P3_MyD88 Rank (before) [11]: 1770
Sequence: VDPSHLRKQSGEFG

P8_MyD88 Rank (after) [8]: 566
P8_MyD88 Rank (before) [9]: 3461
Sequence: PQDLEWFYERLVTHVLLRHL

Rank (after) [15]: 1011
Rank (before) [16]: 3504
Sequence: PQELECIYKRLVSLIL

P3_MyD88 Rank (after) [12]: 243
P3_MyD88 Rank (before) [13]: 1232
Sequence: NGHESEIIKEIVDTFM

P3_MyD88 Rank (after) [12]: 255
P3_MyD88 Rank (before) [13]: 1460
Sequence: YYLDPSHLRKQSGESE

Rank (after) [1]: 437
Rank (before) [2]: 3162
Sequence: EWVWDYLLPNLESPAG

P3_MyD88 Rank (after) [5]: 617
P3_MyD88 Rank (before) [6]: 3650
Sequence: KEVEGWRNALTNVASL

Rank (after) [15]: 893
Rank (before) [16]: 1632
Sequence: WDFASKMEQFLDRLYY

P8_MyD88 Rank (after) [5]: 609
P8_MyD88 Rank (before) [6]: 2071
Sequence: YLRADEFWTLEKLLTA

Rank (after) [1]: 151
Rank (before) [2]: 166
Population [14]: 0.00886%
Sequence: EWVKNSLLQYLDSQFE

P3_MyD88 Rank (after) [12]: 198
P3_MyD88 Rank (before) [13]: 1713
Sequence: YTELTSSGFHTFRDND

Rank (after) [15]: 883
Rank (before) [16]: 2135
Sequence: YKLALHFRVWRVGVSI

Rank (after) [3]: 424
Rank (before) [4]: 3274
Sequence: SSRRERLWRLLELSKK

P8_MyD88 Rank (after) [5]: 594
P8_MyD88 Rank (before) [6]: 3231
Sequence: LGYHWVVWEYFVGIED

Rank (after) [15]: 938
Rank (before) [16]: 2939
Sequence: DPQDLQWSYERLVSRI

P3_MyD88 Rank (after) [8]: 531
P3_MyD88 Rank (before) [9]: 2536
Sequence: LKEESWRRAQEKAGKL

Population [14]: 0.00617%
Sequence: WALNELLQILHARELF

Rank (after) [15]: 960
Rank (before) [16]: 3299
Sequence: LGYHWMEWEYVVGIED

Population [7]: 0.00408%
Sequence: SSFREGMWRLLELSKK

P3_MyD88 Rank (after) [8]: 575
P3_MyD88 Rank (before) [9]: 3061
Sequence: SELREVVGGAVSQLVM

P3_MyD88 Rank (after) [8]: 549
P3_MyD88 Rank (before) [9]: 1746
Sequence: YNLISHLYDAMHRNRI

Rank (after) [3]: 171
Rank (before) [4]: 1662
Sequence: YTALTNSGFPTFRDHD

P8_MyD88 Rank (after) [8]: 511
P8_MyD88 Rank (before) [9]: 1815
Sequence: YASYDDNDYYWDPCAAASS

Population [7]: 0.00291%
Sequence: NVHESEIIKEIVDTIV

Rank (after) [15]: 951
Rank (before) [16]: 1858
Sequence: YASSSWYLDELCIFC

Rank (after) [15]: 918
Rank (before) [16]: 2663
Sequence: DPQGLVWLYERLFSQI

Rank (after) [3]: 445
Rank (before) [4]: 2411
Sequence: LKWGGSCLSIKLAYAM

P3_MyD88 Rank (after) [10]: 724
P3_MyD88 Rank (before) [11]: 3792
Sequence: KNLIMEQLSKELHTVM

Rank (after) [3]: 443
Rank (before) [4]: 3453
Sequence: NERVHVWSSKAKSLVG

Rank (after) [1]: 155
Rank (before) [2]: 238
Sequence: NYASSSWALDELLRILY

Rank (after) [15]: 896
Rank (before) [16]: 2347
Sequence: DFLSHLIKRLAVCTS

P3_MyD88 Rank (after) [8]: 562
P3_MyD88 Rank (before) [9]: 3219
Sequence: SSFREGMWRLMVLSKK

Rank (after) [15]: 984
Rank (before) [16]: 2474
Sequence: DWVCDYLLPDREGPAG

P8_MyD88 Rank (after) [10]: 676
P8_MyD88 Rank (before) [11]: 3070
Sequence: DIQWALQKLMQIMEAF

Rank (after) [3]: 457
Rank (before) [4]: 3136
Sequence: SSFRECLWRLEELSKK

Rank (after) [15]: 1018
Rank (before) [16]: 2248
Sequence: VQWDDSWFWEKLLYA

P8_MyD88 Rank (after) [12]: 237
P8_MyD88 Rank (before) [13]: 416
Sequence: LRYDDPWFWEKLVFAM

Rank (after) [15]: 885
Rank (before) [16]: 3614
Sequence: IAADHLSYLGRLLLSR

P3_MyD88 Rank (after) [12]: 276
P3_MyD88 Rank (before) [13]: 1642
Sequence: YTALTYSGFHTFRDNV
